The nature of this assay: Compound was evaluated for mitogenic inhibition against Swiss 3T3 murine fibroblast cells.

SMILES strings stand for the structures. Non-standard residues stand in square brackets, D forms with d. Residues, ends and D or L forms follow the SMILES beside them. *: point of attachment. Leu(ol) = CC(C)C[C@H](N)CO; X4 = CCCCCC[C@H](CC(C)C)N*; X3 = COC[C@H](CC(C)C)N*; X6 = CCC[C@H](CC(C)C)N*; X7 = CCCC(CCC)N*

A word on the IC50: it is the concentration that gives 50% inhibition.

Take `CCCCCC[C@H](CC(C)C)NC(=O)[C@H](Cc1cnc[nH]1)NC(=O)CNC(=O)[C@@H](NC(=O)[C@H](C)NC(=O)[C@H](Cc1c[nH]c2ccccc12)NC(=O)[C@H](Cc1cnc[nH]1)NC(C)=O)C(C)C` [2-{2-[2-[2-Acetylamino-3-(3H-imidazol-4-yl)-propionylamino]-3-(1H-indol-3-yl)-propionylamino]-propionylamino}-N-{[2-(3H-imidazol-4-yl)-1-(1-isobutyl-heptylcarbamoyl)-ethylcarbamoyl]-methyl}-3-methyl-butyramide] (Ac-HWAVGH-X4): the IC50 is 7 nM. That is a single-digit nanomolar value.

Take `COC[C@H](CC(C)C)NC(=O)[C@H](Cc1c[nH]cn1)NC(=O)CNC(=O)[C@@H](NC(=O)[C@H](C)NC(=O)[C@H](Cc1c[nH]c2ccccc12)NC(=O)[C@H](Cc1c[nH]cn1)NC(C)=O)C(C)C` [2-{2-[2-[2-Acetylamino-3-(3H-imidazol-4-yl)-propionylamino]-3-(1H-indol-3-yl)-propionylamino]-propionylamino}-N-{[2-(3H-imidazol-4-yl)-1-(1-methoxymethyl-3-methyl-butylcarbamoyl)-ethylcarbamoyl]-methyl}-3-methyl-butyramide] (Ac-HWAVGH-X3): inhibition was half-maximal at 91 nM (IC50).

In turn, `CC(=O)N[C@@H](Cc1c[nH]cn1)C(=O)N[C@@H](Cc1c[nH]c2ccccc12)C(=O)N[C@@H](C)C(=O)N[C@H](C(=O)NCC(=O)N[C@@H](Cc1c[nH]cn1)C(=O)N[C@H](CO)CC(C)C)C(C)C` [2-{2-[2-[2-Acetylamino-3-(3H-imidazol-4-yl)-propionylamino]-3-(1H-indol-3-yl)-propionylamino]-propionylamino}-N-{[1-(1-hydroxymethyl-3-methyl-butylcarbamoyl)-2-(3H-imidazol-4-yl)-ethylcarbamoyl]-methyl}-3-methyl-butyramide] (Ac-HWAVGH[Leu(ol)]) gave a 50% inhibitory concentration (IC50) of 300 nM. Compared with the last molecule, the IC50 is about 3.3-fold higher.

`CCC[C@H](CC(C)C)NC(=O)[C@H](Cc1cnc[nH]1)NC(=O)CNC(=O)[C@@H](NC(=O)[C@H](C)NC(=O)[C@H](Cc1c[nH]c2ccccc12)NC(=O)[C@H](Cc1cnc[nH]1)NC(C)=O)C(C)C` [2-{2-[2-[2-Acetylamino-3-(3H-imidazol-4-yl)-propionylamino]-3-(1H-indol-3-yl)-propionylamino]-propionylamino}-N-{[2-(3H-imidazol-4-yl)-1-(3-methyl-1-propyl-butylcarbamoyl)-ethylcarbamoyl]-methyl}-3-methyl-butyramide] (Ac-HWAVGH-X6) had an IC50 of 10 nM. Compared with the last molecule, the IC50 is about 30-fold lower.

For `CCCC(CCC)NC(=O)[C@H](Cc1cnc[nH]1)NC(=O)CNC(=O)[C@@H](NC(=O)[C@H](C)NC(=O)[C@H](Cc1c[nH]c2ccccc12)NC(=O)[C@H](Cc1cnc[nH]1)NC(C)=O)C(C)C` [2-{2-[2-[2-Acetylamino-3-(3H-imidazol-4-yl)-propionylamino]-3-(1H-indol-3-yl)-propionylamino]-propionylamino}-N-{[2-(3H-imidazol-4-yl)-1-(1-propyl-butylcarbamoyl)-ethylcarbamoyl]-methyl}-3-methyl-butyramide] (Ac-HWAVGH-X7), the IC50 stood at 80 nM. This IC50 lies about 8-fold higher than the previous one.

In turn, `CCOC[C@H](CC(C)C)NC(=O)[C@H](Cc1c[nH]cn1)NC(=O)[C@H](C)NC(=O)[C@@H](NC(=O)[C@H](C)NC(=O)[C@H](Cc1c[nH]c2ccccc12)NC(=O)[C@H](Cc1c[nH]cn1)NC(C)=O)C(C)C` [2-{2-[2-[2-Acetylamino-3-(3H-imidazol-4-yl)-propionylamino]-3-(1H-indol-3-yl)-propionylamino]-propionylamino}-N-{1-[1-(1-ethoxymethyl-3-methyl-butylcarbamoyl)-2-(3H-imidazol-4-yl)-ethylcarbamoyl]-ethyl}-3-methyl-butyramide] came in with an IC50 greater than 300 nM.
